Experimental data reported in ChEMBL document CHEMBL1135637, “Quantitative structure--activity relations for gammadelta T cell activation by phosphoantigens” (J Med Chem, 2002).

Test: Effective concentration to activate gammadelta T cells
Format: functional, cell-based
Conditions: t-cell

SMILES	EC50 [µM]
O=C(O)C(COP(=O)(O)O)OP(=O)(O)O (stereo not given)	1580
CCC(=O)COP(=O)(O)OP(=O)(O)O	44.7
CC(OP(=O)(O)O)C(=O)O (stereo not given)	1580
CCC(=O)CCOP(=O)(O)OP(=O)(O)O	31.6
CC(=O)C(C)COP(=O)(O)OP(=O)(O)O (stereo not given)	31.6
O=P(O)(O)OCCO	224
CC(=O)CCCOP(=O)(O)OP(=O)(O)O	31.6
C/C=C\COP(=O)(O)O	158
CC(C)=CCOP(=O)(O)O	158
O=P(O)(O)O[C@@H]1OC[C@@H](O)[C@H](O)[C@H]1O	1580
CCC(C)OP(=O)(O)O (stereo not given)	2240
O=P(O)(O)OCC(O)CO (stereo not given)	1580
C=CCOP(=O)(O)O	158
CC(=O)CCOP(=O)(O)OP(=O)(O)O	40
NCCCC(O)(P(=O)(O)O)P(=O)(O)O [ALENDRONIC ACID]	0.9
CCOP(=O)(OCC)OP(=O)(OCC)OCC [ETHYL PYROPHOSPHATE]	3.16
C=C(C)CCOP(=O)(O)O [ISOPENTENYL PHOSPHATE]	158
O=C(O)COP(=O)(O)O [PHOSPHOGLYCOLIC ACID]	707
COP(=O)(O)O [PHOSPHORIC ACID MONOMETHYL ESTER]	707
CC(C)OP(=O)(O)O [PHOSPHORYLISOPROPANE]	707
CCCOP(=O)(O)O [PROPYL PHOSPHATE]	707

Further compounds by falling EC50, results first:

EC50 [µM]	SMILES
14.1	CC(O)(CBr)CCOP(=O)(O)OP(=O)(O)OP(=O)(O)OCC(C)(O)CBr (stereo not given)
8.66	CC(O)(CI)CCOP(=O)(O)OP(=O)(O)OP(=O)(O)OCCC(C)(O)CI (stereo not given)
7.07	CC(COP(=O)(O)OP(=O)(O)O)C(C)(O)CI (stereo not given)
5.66	NCCC(O)(P(=O)(O)O)P(=O)(O)O [PAMIDRONIC ACID]
3.16	CC(O)(CO)CCOP(=O)(O)OP(=O)(O)O (stereo not given)
3.16	C=CCOP(=O)(O)OP(=O)(O)O [ALLYL PYROPHOSPHATE]
3.16	C/C=C\COP(=O)(O)OP(=O)(O)O [CROTYL PYROPHOSPHATE]
1	CCCCCN(C)CCC(O)(P(=O)(O)O)P(=O)(O)O [IBANDRONIC ACID]
0.4	C[C@@]1(CCOP(=O)(O)OP(=O)(O)O)CO1
0.346	CC(O)(CBr)CCOP(=O)(O)OP(=O)(O)OP(=O)(O)O (stereo not given) [BROMOHYDRIN TRIPHOSPHATE]
0.224	CC(O)(CI)CCOP(=O)(O)OP(=O)(O)OP(=O)(O)O (stereo not given) [IODOHYDRIN TRIPHOSPHATE]
0.0707	CC(O)(CCl)CCOP(=O)(O)OP(=O)(O)O (stereo not given) [CHLOROHYDRIN PYROPHOSPHATE]
0.01	CC(O)(CBr)CCOP(=O)(O)OP(=O)(O)O (stereo not given) [BROMOHYDRIN PYROPHOSPHATE]
0.0012	CC(O)(CI)CCOP(=O)(O)OP(=O)(O)O (stereo not given) [IODOHYDRIN PYROPHOSPHATE]
